Target: T1, HIV-1 protease (Human immunodeficiency virus type 1 group M subtype B, UniProt P04585)
T1 construct: The protease (or proteinase) enzyme, consisting of only 99 amino acids
Experiment: In vitro HIV protease inhibitory assay (fluorescently labeled substrate, avidin-polystyrene particles)
Format: biochemical
Conditions: for inhibition at 3.3 µM: HIV-1 dose 3.3 μM; for inhibition at 10 µM: HIV-1 dose 10.0 μM; for inhibition at 30 µM: HIV-1 dose 30.0 μM; for inhibition at 1 µM: HIV-1 dose 1.0 μM; for inhibition at 100 µM: HIV-1 dose 100.0 μM
Description: The HIV protease screening assay is based on a fluorescently labeled substrate which can be resolved from nonlabeled cleavage product using avidin-polystyrene particles, 0.7-0.9 μm. The substrate is biotinylated at the amino terminal arginine and fluorescently labeled with fluorescein isothiocynate (FITC) at the carboxyl terminal lysine. This assay has been employed to detect novel, nonpeptidic inhibitors of HIV-1 protease. Substrate (20 μl of 0.2 μM), sample (10 μl of desired concentraion), and enzyme (10 μl of 0.1 μM) are added to a 96 well pandex plate. The assay is run in 0.1 M sodium acetate buffer at pH 5.5 in the presence of 1.0 M sodium chloride and 0.05% NP-40 and incubated in the dark for one hour at room temperature. Avidin coated polystyrene beads (40 μl of 0.1% (w/v)) are added and the incubation is continued in the dark for an additional half hour. The labeled cleavage product is separated from the unreacted substrate via filtration and is read on the IDEXX Screen Machine. (IDEXX Corporation--Portland, Me.) The data are analyzed by appropriate computer algorithms to ascertain percent inhibition values.
The Activity Table showing the results of the HIV Protease Inhibitory Assay appears below in TABLE 1. The table has three columns, the left column provides the code number of the compound for easy cross reference to structure tables and detailed procedures, the middle column provides the concentration of test compound and the column on the right provides the percent inhibition.

| Compound | inhibition at 3.3 µM | inhibition at 10 µM | inhibition at 30 µM | inhibition at 1 µM | inhibition at 100 µM | inhibition at 0.123 µM (HIV-1 dose 0.123 μM) | inhibition at 0.37 µM (HIV-1 dose 0.37 μM) |
| --- | --- | --- | --- | --- | --- | --- | --- |
| N#Cc1ccc(S(=O)(=O)Nc2cccc(C(C3=C(O)C(Cc4ccccc4)(Cc4ccccc4)OC3=O)C3CC3)c2)cc1 (centres unmarked) [IX-43] | 98.6% | 96.8% | 99.8% | – | – | – | – |
| CCCC1(Cc2ccccc2)OC(=O)C(C(c2cccc(NS(=O)(=O)c3ccc(F)cc3)c2)C(C)C)=C1O (centres unmarked) [IX-29, Benzenesulfonamide, N-(3-(1-(2,5-dihydro-4-hydroxy-2-oxo-5-(phenylmethyl)-5-propyl-3-furanyl)-2-methylpropyl)phenyl)-4-fluoro-] | 94.9% | 102% | 93.3% | – | – | – | – |
| CCCC1(CCC)OC(=O)C(C(c2cccc([N+](=O)[O-])c2)C2CC2)=C1O (centres unmarked) [IX-1, 2(5H)-Furanone, 3-(cyclopropyl(3-nitrophenyl)methyl)-4-hydroxy-5,5-dipropyl-] | 108% | 121% | 122% | – | – | – | – |
| CCCC1(CCC)OC(=O)C(C(CC(C)C)c2cccc(NS(=O)(=O)c3cn(C)cn3)c2)=C1O (centres unmarked) [IX-22] | 94.3% | 96.3% | 94.5% | – | – | – | – |
| CCCC1(Cc2cccnc2)OC(=O)C(C(c2ccccc2)C2CC2)=C1O (centres unmarked) [DX-6, 2(5H)-Furanone, 3-(cyclopropylphenylmethyl)-4-hydroxy-5-propyl-5-(3--pyridinylmethyl)-] | 103% | 102% | 104% | – | – | – | – |
| CCC(c1ccccc1)C1OC(=O)C(C(c2ccccc2)C2CC2)=C1O (centres unmarked) [GX-6, 2(5H)-Furanone, 3-(cyclopropylphenylmethyl)-4-hydroxy-5-(1-phenylpropyl)-] | 91.9% | 99.7% | 103% | – | – | – | – |
| O=C1OC(=CCCc2ccccc2)C(O)=C1C(c1ccccc1)C1CC1 (centres unmarked) [JX-1, 3-(Cyclopropyl-phenyl-methyl)-4-hydroxy-5-(3-phenyl-propyl-idene)-5H-furan-2-one] | 94.3% | 103% | 103% | – | – | – | – |
| CCCC1(CCC)OC(=O)C(C(c2cccc(NS(=O)(=O)c3ncccn3)c2)C2CC2)=C1O (centres unmarked) [IX-55, 2-Pyrimidinesulfonamide, N-(3-(cyclopropyl-(4-hydroxy-2-oxo-5,5-dipropyl-2,5 dihydro-furan-3-yl)-methyl)-phenyl)-] | 93.8% | 93.8% | 96.3% | – | – | – | – |
| CCCC1(CCC)OC(=O)C(C(c2ccccc2)c2cccc(NS(=O)(=O)c3ccc(C#N)cc3)c2)=C1O (centres unmarked) [IX-47, Benzenesulfonamide, 4-cyano-N-(3-((5,5-dipropyl-4-hydroxy-2-oxo-2,5-dihydro-3-furanyl)-phenyl-methyl)phenyl)-] | 93.5% | 103% | 88.3% | – | – | – | – |
| CCCC1(CCC)OC(=O)C(C(CC)c2cccc(NS(=O)(=O)c3ccccc3)c2)=C1O (centres unmarked) [IX-20, Benzenesulfonamide, N-(3-(1-(2,5-dihydro-4-hydroxy-2-oxo--5,5-dipropyl-3-furanyl)propyl)phenyl)-] | 104% | 101% | 91.8% | – | – | – | – |
| O=C1OC(Cc2ccccc2)(Cc2ccccc2)C(O)=C1C(c1cccc(NS(=O)(=O)c2ccc(F)cc2)c1)C1CC1 (centres unmarked) [IX-44] | 90.3% | 92.3% | 80.3% | – | – | – | – |
| CC(C)(C)OC(=O)N1CCC2(CC1)OC(=O)C(C(c1ccccc1)C1CC1)=C2O (centres unmarked) [OX-1, 3-(Cyclopropyl-phenyl-methyl)-4-hydroxy-2-oXo-1-oca-8-aza-spiro[4.5]dec-3-ene-8-carboxylic acid tert-butyl ester] | 78.8% | 89.9% | 100% | – | – | – | – |
| CCC/C=C1\OC(=O)C(C(c2ccccc2)C2CC2)=C1O (centres unmarked) [JX-4, 5-Butylidene-3-(cyclopropyl-phenyl-methyl)-4-hydroxy-5H-furan-2-one] | 85.9% | 99.2% | 113% | – | – | – | – |
| CC(CCc1ccccc1)C1OC(=O)C(C(c2ccccc2)C2CC2)=C1O (centres unmarked) [GX-3, 2(5H)-Furanone, 3-(cyclopropylphenylmethyl)-4-hydroxy-5-(1-methyl-3-phenyl-propyl)-] | 67.2% | 84.7% | 87.4% | – | – | – | – |
| CCCC1(CCC)OC(=O)C(C(c2cccc(NC(=O)OCc3ccccc3)c2)C2CC2)=C1O (centres unmarked) [IX-32, Carbamic acid, (3-(cyclopropyl(2,5-dihydro-4-hydroxy-2-oxo-5,5-dipropyl-3-furanyl)methyl)phenyl)-, phenylmethyl ester] | 100% | 106% | 111% | – | – | – | – |
| CCCC1(Cc2ccccc2)OC(=O)C(C(c2cccc(NS(=O)(=O)c3ccc(C#N)cc3)c2)C(C)C)=C1O (centres unmarked) [IX-28] | 123% | 118% | 125% | – | – | – | – |
| O=C1OC(CCCc2ccccc2)C(O)=C1C(c1ccccc1)C1CC1 (centres unmarked) [BX-3, 2(5H)-Furanone, 3-(cyclopropylphenylmethyl)-4-hydroxy-5-(3-phenylpropyl)-] | – | 90.6% | – | 46% | 93.2% | – | – |
| CCCCC(CCc1ccccc1)C1OC(=O)C(C(c2ccccc2)C2CC2)=C1O (centres unmarked) [GX-2, 2(5H)-Furanone, 3-(cyclopropylphenylmethyl)-4-hydroxy-5-(1-(2-phenyl-ethyl)pentyl)-] | 70.9% | 88.3% | 74.9% | – | – | – | – |
| CCCC1(CCC)OC(=O)C(C(c2cccc(NS(=O)(=O)c3cn(C)cn3)c2)C(C)(C)C)=C1O (centres unmarked) [IX-26, 1H-Imidazole-4-sulfonamide, N-(3-(1-(4-hydroxy-2-oxo-5,5-dipropyl-2,5-dihydro-furan-3-yl)-2,2-dimethyl-propyl)-phenyl)-1-methyl-] | 110% | 116% | 105% | – | – | – | – |
| CC1(Cc2ccccc2)OC(=O)C(C(c2ccccc2)C2CC2)=C1O (centres unmarked) [DX-2, 2(5H)-Furanone, 3-(cyclopropylphenylmethyl)-4-hydroxy-5-methyl-5-(phenyl-methyl)-] | 94.5% | 98.2% | 104% | – | – | – | – |
| O=C1OC(CCc2ccccc2)(CCc2ccccc2)C(O)=C1C(c1ccccc1)C1CC1 (centres unmarked) [DX-9, 2(5H)-Furanone, 3-(cyclopropylphenylmethyl)-4-hydroxy-5,5-bis(2-phenylethyl)-] | 86.7% | 104% | 99.8% | – | – | – | – |

The next lines start with the values.

| inhibition at 3.3 µM | inhibition at 10 µM | inhibition at 30 µM | inhibition at 1 µM | inhibition at 100 µM | inhibition at 0.123 µM (HIV-1 dose 0.123 μM) | inhibition at 0.37 µM (HIV-1 dose 0.37 μM) | Compound |
| --- | --- | --- | --- | --- | --- | --- | --- |
| 98.1% | 111% | 118% | – | – | – | – | CC1(CCc2ccccc2)OC(=O)C(C(c2ccccc2)C2CC2)=C1O (centres unmarked) [CX-3, 2(5H)-Furanone, 3-(cyclopropylphenylmethyl)-4-hydroxy-5-methyl-5-(2--phenylethyl)-] |
| 104% | 108% | 104% | – | – | – | – | O=C1OC2(CCCCCC2)C(O)=C1C(c1ccccc1)C1CC1 (centres unmarked) [IX-8, 1-Oxaspiro[4.6]undec-3-en-2-one, 3-(cyclo-propylphenylmethyl)-4-hydroxy-] |
| 103% | 126% | 105% | – | – | – | – | CCCC1(CCC)OC(=O)C(C(c2cccc(NS(=O)(=O)c3cccc4ccccc34)c2)C2CC2)=C1O (centres unmarked) [IX-19] |
| – | 81% | – | 47.2% | 81.4% | – | – | O=C1OC(CCc2ccccc2)C(O)=C1C(c1ccccc1)C1CC1 (centres unmarked) [BX-2, 2(5H)-Furanone, 3(cyclopropylphenylmethyl)-4-hydroxy-5-(2-phenylethyl)-] |
| 65.7% | 77.2% | 82.1% | – | – | – | – | O=C1OC(CC=Cc2ccccc2)C(O)=C1C(c1ccccc1)C1CC1 (centres unmarked) [BX-6, 2(5H)-Furanone, 3-(cyclopropylphenylmethyl)-4-hydroxy-5-(3-phenyl-2-propenyl)-] |
| 61.9% | 84.4% | 84.3% | – | – | – | – | CC(C)(C)C(C1=C(O)C(CCCc2ccccc2)OC1=O)c1ccccc1 (centres unmarked) [FX-5, 2(5H)-Furanone, 3-(2,2-dimethyl-1-phenylpropyl)-4-hydroxy-5-(3-phenyl-propyl)-] |
| < 10% | 18% | 40% | – | – | – | – | O=C1OC(C(O)C=Cc2ccccc2)C(O)=C1C(c1ccccc1)C1CC1 (centres unmarked) [BX-7, 2(5H)-Furanone, 3-(cyclopropylphenylmethyl)-4-hydroxy-5-(1-hydroxy-3--phenyl-2-propenyl)-] |
| 40.5% | 74.6% | 98.6% | – | – | – | – | CC(C)C1OC(=O)C(C(c2ccccc2)C2CC2)=C1O (centres unmarked) [BX-10, 2(5H)-Furanone, 3-(cyclopropylphenylmethyl)-4-hydroxy-5-(1-methylethyl)-] |
| – | – | – | – | – | 89.2% | 104% | O=C1OC(CCCc2ccccc2)(CC2CC2)C(O)=C1C(c1ccccc1)C1CC1 (centres unmarked) [DX-14] |
| 85% | 102% | 106% | – | – | – | – | O=C1OC(CCCc2ccccc2)(CCCc2ccccc2)C(O)=C1C(c1ccccc1)C1CC1 (centres unmarked) [DX-13, 2(5H)-Furanone, 3-(cyclopropylphenylmethyl)-4-hydroxy-5,5-bis(3-phenyl-propyl)-] |

Source: US5977169A, “Substituted tetronic acids useful for treating HIV and other retroviruses” (priority 1997, dated 1999)
